Experimental data: BindingDB's records for patent US10544130 (Merck Sharp & Dohme Corp., 2020)

Legend:
[1] = target: Metallo-beta-lactamase type 2 (Klebsiella pneumoniae, UniProt C7C422)
[2] = target: Metallo-beta-lactamase VIM-1 (Pseudomonas aeruginosa, UniProt A0A0F7KYQ8)

Sequence of Metallo-beta-lactamase type 2 (C7C422 whole entry): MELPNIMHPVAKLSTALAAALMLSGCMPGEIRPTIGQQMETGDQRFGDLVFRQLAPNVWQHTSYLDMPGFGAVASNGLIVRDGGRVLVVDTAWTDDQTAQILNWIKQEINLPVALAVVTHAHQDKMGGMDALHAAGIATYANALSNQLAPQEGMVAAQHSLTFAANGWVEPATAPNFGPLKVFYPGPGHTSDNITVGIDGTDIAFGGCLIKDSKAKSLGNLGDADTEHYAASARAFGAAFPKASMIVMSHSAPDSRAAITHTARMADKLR

Question: N#Cc1cccc(B(O)O)c1N [US10544130, Example 11] was tested. Which IC50 [1] did it give?
Answer: 0.019 nM

Question: What about the IC50 [2] of the same molecule?
Answer: 0.05 nM

Question: How did the IC50 [2] turn out when OB(O)c1cccc2[nH]cnc12 [US10544130, Example 12] was run?
Answer: 0.102 nM

Question: Which IC50 [1] does the source give for COc1ccc(CN(Cc2ccc(OC)cc2)S(=O)(=O)c2c(S(=O)(=O)N[C@@H]3CCN(C(=O)OC(C)(C)C)C3)ccc(I)c2-c2nnn(Cc3ccc(OC)cc3)n2)cc1 [US10544130, Example 72] here?
Answer: 0.02 nM

Question: For COc1ccc(CN(Cc2ccc(OC)cc2)S(=O)(=O)c2c(S(=O)(=O)NC[C@H](CO)NC(=O)OCc3ccccc3)ccc(I)c2-c2nnn(Cc3ccc(OC)cc3)n2)cc1 [US10544130, Example 80], which IC50 [2] is on record?
Answer: 0.158 nM

Question: Which IC50 [2] does the source give for COc1ccc(CN(Cc2ccc(OC)cc2)S(=O)(=O)c2c(S(=O)(=O)NC[C@@H](CNC(=O)OC(C)(C)C)NC(=O)OC(C)(C)C)ccc(I)c2-c2nnn(Cc3ccc(OC)cc3)n2)cc1 [US10544130, Example 81] here?
Answer: 0.135 nM

Question: For COc1ccc(CN(Cc2ccc(OC)cc2)S(=O)(=O)c2c(S(=O)(=O)N[C@H]3CN(C(=O)OC(C)(C)C)C[C@@H]3NC(=O)OC(C)(C)C)ccc(I)c2-c2nnn(Cc3ccc(OC)cc3)n2)cc1 [US10544130, Example 82], which IC50 [1] is on record?
Answer: 0.049 nM

Question: What does the source list for Nc1ncccc1-c1ccc(S(=O)(=O)N[C@H]2C[C@@H]2N)c(S(N)(=O)=O)c1-c1nn[nH]n1 [US10544130, Example 216]?
Answer: IC50 [1]: 0.237 nM; IC50 [2]: 0.269 nM

Question: Which IC50 [1] does the source give for C[N+]1(CCN)CC[C@@H](NS(=O)(=O)c2ccc(-c3cccc4[nH]c(N)nc34)c(-c3nn[nH]n3)c2S(N)(=O)=O)C1 (stereo not given in full) [US10544130, Example 248] here?
Answer: 0.011 nM
